The target of series [1] is human recombinant BTK (full length, His-tagged) (Homo sapiens (Human), UniProt Q06187). Briefly: BTK Z'-LYTE assay.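 Further: FRET readout of kinase phosphorylating a coumarin and fluorescein labelled synthetic peptide, detected via protease sensitivity of unphosphorylated versus phosphorylated substrate, incubated at 22 °C in 384-well plates.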 The class given is biochemical. As to conditions: 25 μM ATP.
The target of series [2] is human recombinant full length TEC (His-tagged) (Homo sapiens (Human), UniProt P42680). In words: TEC Lanthscreen Eu Kinase Binding assay. As to conditions: 1 nM TEC.
Chain of human recombinant full length TEC (His-tagged) (P42680 whole entry): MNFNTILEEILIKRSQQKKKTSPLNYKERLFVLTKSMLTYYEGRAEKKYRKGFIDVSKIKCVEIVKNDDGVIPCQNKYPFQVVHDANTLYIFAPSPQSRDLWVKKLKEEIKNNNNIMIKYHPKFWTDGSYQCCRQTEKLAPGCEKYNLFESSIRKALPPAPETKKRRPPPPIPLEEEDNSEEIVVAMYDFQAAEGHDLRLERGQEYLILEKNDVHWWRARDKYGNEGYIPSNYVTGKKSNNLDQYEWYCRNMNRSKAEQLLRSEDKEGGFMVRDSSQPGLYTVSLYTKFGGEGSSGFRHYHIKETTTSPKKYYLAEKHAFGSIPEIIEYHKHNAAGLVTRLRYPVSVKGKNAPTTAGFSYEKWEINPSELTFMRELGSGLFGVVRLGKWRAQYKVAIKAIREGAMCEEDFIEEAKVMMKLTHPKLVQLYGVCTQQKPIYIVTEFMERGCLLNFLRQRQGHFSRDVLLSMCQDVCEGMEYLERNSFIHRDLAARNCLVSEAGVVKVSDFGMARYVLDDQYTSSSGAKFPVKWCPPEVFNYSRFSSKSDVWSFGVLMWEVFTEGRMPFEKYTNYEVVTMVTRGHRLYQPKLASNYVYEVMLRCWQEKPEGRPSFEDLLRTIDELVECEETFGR
A short description of series [3]: Plasma compound exposure in rats (tail bleed, day 6). As to conditions: rat. The class given is in vivo. As to the method:
(§1) All animals (telemetry-instrumented) are single housed in metabolic cages. Rats are acclimated to the metabolic cage for at least 3 days and then dosed with vehicle for up to 4 days. Blood pressure, heart rate, and bodyweight are collected during the baseline period and animals are randomized into 3 groups based on these parameters (n=8-9/group). Treatment groups are: vehicle and test compound (10 mg/kg po and 30 mg/kg po qd); animals are treated with compound for 5 days. […] Mean arterial pressure (MAP) and heart rate (HR) are collected continuously throughout the study. Statistical analyses is performed using GraphPad Prism based on the average 24-hr mean value during five days of compound administration (one-way ANOVA with Dunnett's post-test vs. Vehicle; p<0.05 is considered statistically significant).

Series [4] concerns mean arterial pressure (MAP). As to conditions: rat, in vivo; for 5-Day 24-h MAP Change versus Control: po. As to the method: In-Vivo Assay—Comparison Between the Compounds of the Present Invention and Comparative Compounds A, B and C
In a side-by-side in-vivo study, select compounds of the present invention and comparative compounds A-C are evaluated in telemetry-instrumented conscious rats to determine their effects on mean arterial pressure (MAP) at doses at or above therapeutically relevant concentrations.
as §1

Series [5] deals with human recombinant Txk (full length, GST-tagged) (Homo sapiens (Human), UniProt P42681). In words: TXK Z'-LYTE assay.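 Further: FRET read-out of kinase phosphorylation of a synthetic peptide labelled with Coumarin and Fluorescein, scored by protease sensitivity of unphosphorylated peptide, incubated at 22 °C.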 As to conditions: read-out: TXK IC50, 100 μM ATP.
Chain of human recombinant Txk (full length, GST-tagged) (P42681 whole entry): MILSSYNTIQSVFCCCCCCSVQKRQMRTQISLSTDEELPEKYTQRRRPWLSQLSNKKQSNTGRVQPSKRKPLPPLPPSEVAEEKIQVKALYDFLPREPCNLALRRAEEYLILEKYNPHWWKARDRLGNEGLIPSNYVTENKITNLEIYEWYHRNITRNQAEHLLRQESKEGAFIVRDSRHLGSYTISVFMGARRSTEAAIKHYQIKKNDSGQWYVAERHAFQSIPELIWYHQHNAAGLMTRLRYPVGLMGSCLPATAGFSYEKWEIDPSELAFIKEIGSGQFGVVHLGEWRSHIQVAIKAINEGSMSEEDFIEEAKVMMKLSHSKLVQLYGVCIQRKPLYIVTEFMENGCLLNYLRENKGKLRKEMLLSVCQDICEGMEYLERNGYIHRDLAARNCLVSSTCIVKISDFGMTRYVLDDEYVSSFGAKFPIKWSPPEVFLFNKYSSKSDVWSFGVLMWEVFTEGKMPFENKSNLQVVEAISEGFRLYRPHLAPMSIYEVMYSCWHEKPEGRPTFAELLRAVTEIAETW
Procedure: Z′-LYTE™ Assay (Life Technologies):
The Z′-Lyte assay employs a FRET-based, coupled-enzyme format and is based on the differential sensitivity of phosphorylated and non-phosphorylated peptides to proteolytic Cleavage. The activity of human recombinant BTK (full length, His-tagged), BMX (full length, His-tagged) or Txk (full length, GST-tagged) is estimated by measuring the phosphorylation of a synthetic FRET peptide substrate labeled with Coumarin and Fluorescein. […] Incubations are carried out at 22° C. in black polypropylene 384-well plates (Corning).
Representative compounds of the present invention are assessed for inhibition of BTK, BMX, and TXK measuring phosphorylation of a substrate (Z′-LYTE™ assay, Life Technologies) and TEC measuring displacement of a “tracer” (Lanthscreen® Eu Kinase Binding assay, Life Technologies).

Like-named read-outs stand apart in the source and are kept apart here.

Consider 3 compounds from patent publication US9975882B2, “Heteroaromatic compounds as BTK inhibitors” (Boehringer Ingelheim International GmbH, priority 2015, dated 2018).

As a reminder, the IC50 is the concentration at which inhibition is half-maximal. As usually defined, the Cmax is the maximum level reached in the sampled fluid or tissue.

Chain of human recombinant BTK (full length, His-tagged) (Q06187 whole entry): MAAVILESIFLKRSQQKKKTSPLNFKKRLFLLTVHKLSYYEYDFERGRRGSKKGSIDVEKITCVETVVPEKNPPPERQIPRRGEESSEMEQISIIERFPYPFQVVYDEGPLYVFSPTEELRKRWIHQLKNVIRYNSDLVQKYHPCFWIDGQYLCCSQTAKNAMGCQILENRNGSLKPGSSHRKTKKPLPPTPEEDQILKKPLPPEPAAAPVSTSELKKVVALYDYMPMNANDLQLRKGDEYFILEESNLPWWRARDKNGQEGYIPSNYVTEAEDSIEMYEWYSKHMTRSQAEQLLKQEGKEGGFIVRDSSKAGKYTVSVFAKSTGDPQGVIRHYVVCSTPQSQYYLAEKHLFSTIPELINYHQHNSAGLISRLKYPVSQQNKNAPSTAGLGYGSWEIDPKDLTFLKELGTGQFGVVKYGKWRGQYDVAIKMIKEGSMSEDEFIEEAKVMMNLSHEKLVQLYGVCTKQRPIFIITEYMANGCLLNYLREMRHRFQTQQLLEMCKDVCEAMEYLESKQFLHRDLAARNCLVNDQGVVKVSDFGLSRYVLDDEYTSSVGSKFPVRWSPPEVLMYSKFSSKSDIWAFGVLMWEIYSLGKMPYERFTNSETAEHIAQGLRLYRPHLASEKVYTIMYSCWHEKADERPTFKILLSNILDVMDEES

`CC#CC(=O)N1CCC2(CC(n3nc(-c4ccc(OC(C)C)cc4)c(C(N)=O)c3N)C2)C1` (stereo not shown) [Compound B, 5-amino-1-(7-but-2-ynoyl-7-azaspiro[3.4]octan-2-yl)-3-(4-isopropoxyphenyl) pyrazole-4-carboxamide]: the IC50 in series [1] is 0.9 nM; in series [2] it was 44 nM. Moreover, the Cmax in series [3] (10 mg/kg po qd) amounted to 182 ± 17 nM; in series [3] (30 mg/kg po qd), 480 ± 53 nM. Besides, the “effect on mean arterial pressure (MAP)” value in series [4] is recorded as “statistically significant increases in MAP”. In addition, the entries for the “5-Day 24-h MAP Change versus Control” value in series [4] (10 mg/kg) and in series [4] (30 mg/kg) were 3 ± 1 mmHg and 2 ± 1 mmHg, respectively.
As for `C=CC(=O)Nc1cccc(Nc2nc(Nc3ccc(OCCOC)cc3)ncc2F)c1` [Compound C, N-(3-(5-fluoro-2-(4-(2-methoxyethoxy)phenylamino)pyrimidin-4-ylamino)phenyl)acrylamide], the figures for the IC50 in series [2] and in series [5] were 6.8 nM and 22 nM, respectively. Moreover, the Cmax in series [3] (plasma, 10 mg/kg po qd) is 644 ± 96 nM; in series [3] (plasma, 30 mg/kg po qd) it was 1730 ± 434 nM. Also, the “effect on mean arterial pressure (MAP)” value in series [4] is “statistically significant increases in MAP”. The “5-Day 24-h MAP Change versus Control” value is 4 ± 1 mmHg in series [4] (10 mg/kg, 5 days) and 5 ± 1 mmHg in series [4] (30 mg/kg, 5 days).
Consider `C=CC(=O)N1CCC[C@@H](n2nc(-c3ccc(Oc4ccccc4)cc3)c3c(N)ncnc32)C1` [Compound A, 1-[(3R)-3-[4-amino-3-(4-phenoxyphenyl)pyrazolo[3,4-d]pyrimidin-1-yl]-1-piperidyl]prop-2-en-1-one], for which the Cmax in series [3] (plasma, 10 mg/kg po qd) was found to be 319 ± 36 nM; in series [3] (plasma, 30 mg/kg po qd) it was 561 ± 183 nM. Besides, in series [4], the “effect on mean arterial pressure (MAP)” value is “statistically significant increases in MAP”. Besides, the “5-Day 24-h MAP Change versus Control” value in series [4] (10 mg/kg, 5 days) is recorded as 3 ± 1 mmHg; in series [4] (30 mg/kg, 5 days) it was 4 ± 1 mmHg.
